# Structures can show the parent of a compound that is named as a salt. Where two headings read alike, the source gives them in different places.
# Conditions: solid material, compared by XRPD
# Description: Two XRPD systems were used for the characterization of the samples.
# (1) Bruker AXS C2 GADDS diffractometer uses Cu Kalpha radiation (40 kV, 40 mA), automated XYZ stage, laser video microscope for auto-sample positioning and a HiStar 2-dimensional area detector. X-ray optics consists of a single Göbel multilayer mirror coupled with a pinhole collimator of 0.3 mm. The beam divergence, i.e. the effective size of the X-ray beam on the sample, was approximately 4 mm. A θ-θ continuous scan mode was employed with a sample-detector distance of 20 cm which gives an effective 20 range of 3.2°-29.7°. Typically the sample was exposed to the X-ray beam for 120 seconds. The software used for data collection was GADDS for XP/2000 4.1.36 and the data was analyzed and presented using Diffrac Plus EVA v13.0.0.2 or v15.0.0.0.
# Samples run under ambient conditions were prepared as flat plate specimens using powder as received without grinding. Approximately 1-2 mg of the sample was lightly pressed on a glass slide to obtain a flat surface.
# (2) Bruker D8 diffractometer uses Cu Ka radiation (40 kV, 40 mA), θ-2θ goniometer, and divergence of V4 and receiving slits, a Ge monochromator and a Lynxeye detector. The software used for data collection was Diffrac Plus XRD Commander v2.6.1 and the data was analyzed and presented using Diffrac Plus EVA v13.0.0.2 or v15.0.0.0.
# Samples were run under ambient conditions as flat plate specimens using powder as received. The sample was gently packed into a cavity cut into polished, zero-background (510) silicon wafer. The sample was rotated in its own plane during analysis. The details of the data collection was: Angular range: 2 to 42° 2θ; Step size: 0.05° 2θ; Collection time: 0.5 s/step
# (3) PANanalytical XPERT-PRO diffractometer at ambient conditions under the following experimental settings: 45 KV, 40 mA, Kα1=1.5406 Å, scan range 2 to 40°, step size 0.0084 or 0.0167°, measurement time: 5 min.
Structure (SMILES),XRPD pattern after storage at 40° C. 75% RH for 14 days (solid form stability),XRPD pattern after storage at 40° C. 75% RH for 14 days (solid form stability) (Hydrochloride)
CC(C)OC(=O)[C@H](C)N[P@](=O)(CO[C@H](C)Cn1cnc2c(N)ncnc21)Oc1ccccc1 [Tenofovir alafenamide methanesulfonate pattern 1],changed to another form,–
"CC(C)OC(=O)[C@H](C)N[P@](=O)(CO[C@H](C)Cn1cnc2c(N)ncnc21)Oc1ccccc1 [tenofovir alafenamide L-malate, Tenofovir Alafenamide L-Malate]",no change,–
"CC(C)OC(=O)[C@H](C)N[P@](=O)(CO[C@H](C)Cn1cnc2c(N)ncnc21)Oc1ccccc1 [tenofovir alafenamide benzenesulfonate, Tenofovir Alafenamide Benzenesulfonate]",no change,–
"CC(C)OC(=O)[C@H](C)N[P@](=O)(CO[C@H](C)Cn1cnc2c(N)ncnc21)Oc1ccccc1 [tenofovir alafenamide ethanesulfonate, Tenofovir Alafenamide Ethanesulfonate]",no XRPD change,–
"CC(C)OC(=O)[C@H](C)N[P@](=O)(CO[C@H](C)Cn1cnc2c(N)ncnc21)Oc1ccccc1 [tenofovir alafenamide hydrochloride, Tenofovir Alafenamide Hydrochloride]",–,remained unchanged
"CC(C)OC(=O)[C@H](C)N[P@](=O)(CO[C@H](C)Cn1cnc2c(N)ncnc21)Oc1ccccc1 [tenofovir alafenamide mucate pattern 1, Tenofovir Alafenamide Mucate]",no change,–
"CC(C)OC(=O)[C@H](C)N[P@](=O)(CO[C@H](C)Cn1cnc2c(N)ncnc21)Oc1ccccc1 [tenofovir alafenamide mucate pattern 2, Tenofovir Alafenamide Mucate]",no change,–
"CC(C)OC(=O)[C@H](C)N[P@](=O)(CO[C@H](C)Cn1cnc2c(N)ncnc21)Oc1ccccc1 [tenofovir alafenamide oxalate, Tenofovir Alafenamide Oxalate]",no change in XRPD,–
"CC(C)OC(=O)[C@H](C)N[P@](=O)(CO[C@H](C)Cn1cnc2c(N)ncnc21)Oc1ccccc1 [tenofovir alafenamide saccharin, Tenofovir Alafenamide Saccharin]",same XRPD pattern was obtained,–

# — patent US10155781B2, “Co-crystals, salts and solid forms of tenofovir alafenamide” (Gilead Sciences, Inc., priority 2015, dated 2018)
